Among the data in patent US10597375B2, “Halogen-substituted heterocyclic compound” (UBE INDUSTRIES, LTD., priority 2012, dated 2020) are responders and IC50 values, retold here.

Each structure is given as a SMILES string.

Experiment [1] has as its system LPA-induced histamine release. Kind of experiment: LPA-induced histamine release test in mouse. It is filed as in vivo. Conditions: male CD1 mice; oral dose of 10 mg/kg; LPA 300 μg/mouse via tail vein 4 hours after administration; blood 2 minutes after LPA; read-out: efficacy rate (rate of individuals which showed the inhibition rate of 80% or more of plasma histamine). How it is done: LPA-Induced Histamine Release Test in Mouse
LPA-induced histamine release test in mouse was carried out according to a method by Swaney et al. (The Journal of Pharmacology and Experimental Therapeutics, 336 (2011), pages 693-700). The test compound was suspended in 0.5% methylcellulose solution (133-14255, Wako), and orally administered to male CD1 mice (body weight: 30 to 40 g, supplied by Charles River Laboratories Japan) at a dose of 10 mL/kg. 4 hours after administration, LPA (857130P, Avanti) dissolved in a 0.1% BSA-containing PBS was administered via the tail vein (300 μg/mouse). Immediately, the mouse was anesthetized with isoflurane, and blood was collected via a vein 2 minutes after the administration of LPA. The blood was put into a test tube containing EDTA, and centrifuged at 4° C., 2,000×g, for 10 minutes to obtain the plasma.
The histamine concentration in the plasma was measured by EIA kit (62HTMPEB, Cisbio Bioassays).

The subject of experiment [2] is A2058 human melanoma cells. Description: Cell migration test (LPA-induced, Chemo-Tx). The format is cell-based. Conditions: LPA 100 nM, 3 hours, read-out: IC50: concentration of the test compound which inhibits the cell migration activity of LPA by 50%. The protocol:
The cell migration test was carried out using Chemo-Tx (registered trademark) (116-8, Neuro Probe). A2058 human melanoma cells (obtained from European Collection of Cell Culture) were cultured in a serum-free EMEM medium for 24 hours, and then re-suspended in a 0.1% BSA-containing DMEM medium to obtain a cell suspension. The test compound dissolved in DMSO in various concentration was each added to the cell suspension, and the suspension was cultured at 37° C. for 15 minutes (the final DMSO concentration of 0.5%). LPA dissolved in a 0.1% BSA-containing DMEM medium (the final concentration of 100 nM) was added to Chemo-Tx 96 well plate, and a Chemo-Tx filter which had been coated with 0.001% Fibronectin on the both surfaces was put on the plate. The suspension of cultured cells (25,000 cells) was added onto the upper surface of the filter and further cultured at 37° C. for 3 hours, and the cells on the upper surface of the filter were removed. After the filter was removed and dried, the cells which had migrated to the lower surface of the filter were stained using Diff-Quik stain (16920, Sysmex). The absorbance of the filter (570 nm) was measured and the concentration of the test compound which inhibits the cell migration activity of LPA by 50%, (1050) was determined by non-linear regression analysis using EXSAS (version 7.6.0, Arm Systex).

On to `CC(OC(=O)Nc1cc(F)sc1-c1ccc(-c2ccc(C3(C(=O)O)CC3)cc2)cc1)c1ccsc1` (racemic) [I-639, (RS)-1-{4′-[5-Fluoro-3-({[1-(thiophen-3-yl)ethoxy]carbonyl}amino)thiophen-2-yl]-[1,1′-biphenyl]-4-yl}cyclopropanecarboxylic acid], for which, in experiment [1], the responders at 10 mg/kg is ≥ 50%. In experiment [2], the IC50 is ≤ 200 nM.

For the molecule `Cc1cscc1C(C)OC(=O)Nc1cc(F)sc1-c1ccc(-c2ccc(C3(C(=O)O)CC3)cc2)cc1` (racemic) [I-649, (RS)-1-{4′-[5-Fluoro-3-({[1-(4-methylthiophen-3-yl)ethoxy]carbonyl}amino)thiophen-2-yl]-[1,1′-biphenyl]-4-yl}cyclopropanecarboxylic acid], in experiment [1], the responders at 10 mg/kg was ≥ 50%. Besides, the IC50 in experiment [2] was ≤ 200 nM.

`CC(OC(=O)Nc1cc(F)sc1-c1ccc(-c2ccc(C3(C(=O)O)CC3)cc2)cc1)c1cscc1Cl` (racemic) [I-657, (RS)-1-{4′-[3-({[1-(4-Chlorothiophen-3-yl)ethoxy]carbonyl}amino)-5-fluorothiophen-2-yl]-[1,1′-biphenyl]-4-yl}cyclopropanecarboxylic acid]: the responders at 10 mg/kg in experiment [1] is ≥ 50%. Also, the IC50 in experiment [2] was ≤ 200 nM.

`COc1cc(-c2sc(F)cc2NC(=O)OC(C)c2ccsc2)ccc1-c1ccc(C2(C(=O)O)CC2)cc1` (racemic) [I-811, (RS)-1-{4′-[5-Fluoro-3-({[1-(thiophen-3-yl)ethoxy]carbonyl}amino)thiophen-2-yl]-2′-methoxy-[1,1′-biphenyl]-4-yl}cyclopropanecarboxylic acid]: the responders at 10 mg/kg in experiment [1] is ≥ 50%. Moreover, in experiment [2], the IC50 is ≤ 200 nM.

On to `C[C@@H](OC(=O)Nc1cc(Cl)sc1-c1ccc(-c2ccc(C3(C(=O)O)CC3)cc2)cc1)c1ccc(F)cc1F` [I-64, (R)-1-{4′-[5-Chloro-3-({[1-(2,4-difluorophenyl)ethoxy]carbonyl}amino)thiophen-2-yl]-[1,1′-biphenyl]-4-yl}cyclopropanecarboxylic acid], for which, in experiment [1], the responders at 10 mg/kg is ≥ 50%. In addition, the IC50 in experiment [2] is ≤ 200 nM.

Turning to `C[C@@H](OC(=O)Nc1cc(Cl)sc1-c1ccc(-c2ccc(C3(C(=O)O)CC3)cc2)cc1)c1cc(F)ccc1F` [I-68, (R)-1-{4′-[5-Chloro-3-({[1-(2,5-difluorophenyl)ethoxy]carbonyl}amino)thiophen-2-yl]-[1,1′-biphenyl]-4-yl}cyclopropanecarboxylic acid], the responders at 10 mg/kg in experiment [1] is ≥ 50%. Moreover, in experiment [2], the IC50 is ≤ 200 nM.

As for `Cc1ccccc1[C@@H](C)OC(=O)Nc1cc(F)sc1-c1ccc(-c2ccc(C3(C(=O)O)CC3)cc2)cc1` [I-136, (R)-1-{4′-[5-Fluoro-3-({[1-(o-tolyl)ethoxy]carbonyl}amino)thiophen-2-yl]-[1,1′-biphenyl]-4-yl}cyclopropanecarboxylic acid], in experiment [1], the responders at 10 mg/kg is ≥ 50%. The IC50 in experiment [2] is ≤ 200 nM.

For the molecule `C[C@@H](OC(=O)Nc1cc(Cl)sc1-c1ccc(-c2ccc(C3(C(=O)O)CC3)cc2)nc1)c1ccccc1` [I-196, (R)-1-{4-[5(5-Chloro-3-{[(1-phenylethoxy)carbonyl]amino}thiophen-2-yl)pyridine-2-yl]phenyl}cyclopropanecarboxylic acid], the responders at 10 mg/kg in experiment [1] is ≥ 50%. Moreover, in experiment [2], the IC50 was ≤ 200 nM.

For the molecule `COc1cc(-c2sc(Cl)cc2NC(=O)O[C@H](C)c2ccccc2)ccc1-c1ccc(C2(C(=O)O)CC2)cc1` [I-350, (R)-1-[4′-(5-Chloro-3-{[(1-phenylethoxy)carbonyl]amino}thiophen-2-yl)-2′-methoxy-[1,1′-biphenyl]-4-yl]cyclopropanecarboxylic acid], in experiment [1], the responders at 10 mg/kg was ≥ 50%. Further, the IC50 in experiment [2] is ≤ 200 nM.

Regarding `COc1cc(-c2sc(Cl)cc2NC(=O)O[C@H](C)c2ccccc2F)ccc1-c1ccc(C2(C(=O)O)CC2)cc1` [I-354, (R)-1-{4′-[5-Chloro-3-({[1-(2-fluorophenyl)ethoxy]carbonyl}amino)thiophen-2-yl]-2′-methoxy-[1,1′-biphenyl]-4-yl}cyclopropanecarboxylic acid], the responders at 10 mg/kg in experiment [1] was ≥ 50%. The IC50 in experiment [2] was ≤ 200 nM.

With `COc1cc(-c2sc(Cl)cc2NC(=O)O[C@H](C)c2cccc(F)c2)ccc1-c1ccc(C2(C(=O)O)CC2)cc1` [I-358, (R)-1-{4′-[5-Chloro-3-({[1-(3-fluorophenyl)ethoxy]carbonyl}amino)thiophen-2-yl]-2′-methoxy-[1,1′-biphenyl]-4-yl}cyclopropanecarboxylic acid], in experiment [1], the responders at 10 mg/kg was ≥ 50%. Also, the IC50 in experiment [2] was ≤ 200 nM.

As for `COc1cc(-c2sc(Cl)cc2NC(=O)O[C@H](C)c2ccc(F)cc2)ccc1-c1ccc(C2(C(=O)O)CC2)cc1` [I-362, (R)-1-{4′-[5-Chloro-3-({[1-(4-fluorophenyl)ethoxy]carbonyl}amino)thiophen-2-yl]-2′-methoxy-[1,1′-biphenyl]-4-yl}cyclopropanecarboxylic acid], the responders at 10 mg/kg in experiment [1] is ≥ 50%. Moreover, in experiment [2], the IC50 is ≤ 200 nM.

Take `COc1cc(-c2sc(Cl)cc2NC(=O)O[C@H](C)c2ccccc2Cl)ccc1-c1ccc(C2(C(=O)O)CC2)cc1` [I-366, (R)-1-{4′-[5-Chloro-3-({[1-(2-chlorophenyl)ethoxy]carbonyl}amino)thiophen-2-yl]-2′-methoxy-[1,1′-biphenyl]-4-yl}cyclopropanecarboxylic acid]: the responders at 10 mg/kg in experiment [1] is ≥ 50%. In addition, the IC50 in experiment [2] was ≤ 200 nM.

In the case of `COc1cc(-c2sc(Cl)cc2NC(=O)O[C@H](C)c2ccc(Cl)cc2)ccc1-c1ccc(C2(C(=O)O)CC2)cc1` [I-370, (R)-1-{4′-[5-Chloro-3-({[1-(4-chlorophenyl)ethoxy]carbonyl}amino)thiophen-2-yl]-2′-methoxy-[1,1′-biphenyl]-4-yl}cyclopropanecarboxylic acid], the responders at 10 mg/kg in experiment [1] was ≥ 50%. The IC50 in experiment [2] is ≤ 200 nM.

Turning to `COc1cc(-c2sc(Cl)cc2NC(=O)O[C@H](C)c2ccccc2C)ccc1-c1ccc(C2(C(=O)O)CC2)cc1` [I-374, (R)-1-{4′-[5-Chloro-3-({[1-(o-tolyl)ethoxy]carbonyl}amino)thiophen-2-yl]-2′-methoxy-[1,1′-biphenyl]-4-yl}cyclopropanecarboxylic acid], the responders at 10 mg/kg in experiment [1] was ≥ 50%. In addition, the IC50 in experiment [2] is ≤ 200 nM.

`COc1cc(-c2sc(Cl)cc2NC(=O)O[C@H](C)c2ccc(F)cc2F)ccc1-c1ccc(C2(C(=O)O)CC2)cc1` [I-378, (R)-1-{4′-[5-Chloro-3-({[1-(2,4-difluorophenyl)ethoxy]carbonyl}amino)thiophen-2-yl]-2′-methoxy-[1,1′-biphenyl]-4-yl}cyclopropanecarboxylic acid]: in experiment [1], the responders at 10 mg/kg was ≥ 50%. In experiment [2], the IC50 was ≤ 200 nM.

With `COc1cc(-c2sc(Cl)cc2NC(=O)O[C@H](C)c2cc(F)ccc2F)ccc1-c1ccc(C2(C(=O)O)CC2)cc1` [I-388, (R)-1-{4′-[5-Chloro-3-({[1-(2,5-difluorophenyl)ethoxy]carbonyl}amino)thiophen-2-yl]-2′-methoxy-[1,1′-biphenyl]-4-yl}cyclopropanecarboxylic acid], in experiment [1], the responders at 10 mg/kg was ≥ 50%. Besides, the IC50 in experiment [2] was ≤ 200 nM.

Regarding `COc1cc(-c2sc(F)cc2NC(=O)O[C@H](C)c2ccccc2)ccc1-c1ccc(C2(C(=O)O)CC2)cc1` [I-420], the responders at 10 mg/kg in experiment [1] was ≥ 50%. The IC50 in experiment [2] is ≤ 200 nM.

Take `COc1cc(-c2sc(F)cc2NC(=O)O[C@H](C)c2ccccc2F)ccc1-c1ccc(C2(C(=O)O)CC2)cc1` [I-424, (R)-1-{4′-[5-Fluoro-3-({[1-(2-fluorophenyl)ethoxy]carbonyl}amino)thiophen-2-yl]-2′-methoxy-[1,1′-biphenyl]-4-yl}cyclopropanecarboxylic acid]: the responders at 10 mg/kg in experiment [1] is ≥ 50%. In addition, in experiment [2], the IC50 is ≤ 200 nM.

In the case of `COc1cc(-c2sc(Cl)cc2NC(=O)O[C@H](C)c2cccs2)ccc1-c1ccc(C2(C(=O)O)CC2)cc1` [I-808, (R)-1-{4′-[5-Chloro-3-({[1-(thiophen-2-yl)ethoxy]carbonyl}amino)thiophen-2-yl]-2′-methoxy-[1,1′-biphenyl]-4-yl}cyclopropanecarboxylic acid], in experiment [2], the IC50 was ≤ 200 nM.

In the case of `COc1cc(-c2sc(F)cc2NC(=O)O[C@H](C)c2cccs2)ccc1-c1ccc(C2(C(=O)O)CC2)cc1` [I-840, (R)-1-{4′-[5-Fluoro-3-({[1-(thiophen-2-yl)ethoxy]carbonyl}amino)thiophen-2-yl]-2′-methoxy-[1,1′-biphenyl]-4-yl}cyclopropanecarboxylic acid], in experiment [2], the IC50 is ≤ 200 nM.
